Measurements as given in patent US20200354426A1 (MEDIMMUNE LIMITED, priority 2016, published 2020).
pEC50: −log10 of the molar value. Numbered stars: 1 amine (or outer) side, 2 acyl side, 3 side chain; on linkers, the order of the positions; unused ones are H or OH. Side chains are listed from the residue outwards. Peptide text beside a SMILES is read from it. * marks the point of attachment. γGlu = O=C(O)[C@H](CCC(=O)[*:2])N[*:1]; Palmitoyl = CCCCCCCCCCCCCCCC(=O)*; Ahx = NCCCCCC(=O)O

Key:
Experiment in all cases: cAMP activity assay in assay medium (assay 1)
Format in all cases: cell-based
[1] = molecular target: Human GLP1R (Homo sapiens, UniProt P43220); parameters: expressed in transfected cells; conditions: assay medium; Table 4; read-out: hGLP1R EC50
Chain of Human GLP1R (P43220 24-463): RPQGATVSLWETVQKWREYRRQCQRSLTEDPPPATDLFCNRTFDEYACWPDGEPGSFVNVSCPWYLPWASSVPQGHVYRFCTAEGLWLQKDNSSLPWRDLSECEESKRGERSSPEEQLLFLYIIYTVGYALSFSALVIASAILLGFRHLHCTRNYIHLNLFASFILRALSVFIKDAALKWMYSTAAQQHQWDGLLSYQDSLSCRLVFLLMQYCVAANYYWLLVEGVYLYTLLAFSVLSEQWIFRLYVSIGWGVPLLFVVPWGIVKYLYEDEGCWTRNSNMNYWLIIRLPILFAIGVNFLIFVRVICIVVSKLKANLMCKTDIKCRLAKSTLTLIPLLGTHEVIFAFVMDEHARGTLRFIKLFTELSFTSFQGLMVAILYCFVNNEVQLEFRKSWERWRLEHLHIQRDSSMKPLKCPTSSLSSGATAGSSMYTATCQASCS
Text: (§1) Biological Activity of Peptides in Cell-Based cAMP Activity Assay (Assay 1):
(§2) All sample dilutions were made in duplicate.

[2] = molecular target: T1, Human GIPr (Homo sapiens, UniProt P48546); conditions: assay medium; Table 4; read-out: hGIPR EC50
T1 construct: expressed in transfected cells
T1 sequence (P48546 22-466): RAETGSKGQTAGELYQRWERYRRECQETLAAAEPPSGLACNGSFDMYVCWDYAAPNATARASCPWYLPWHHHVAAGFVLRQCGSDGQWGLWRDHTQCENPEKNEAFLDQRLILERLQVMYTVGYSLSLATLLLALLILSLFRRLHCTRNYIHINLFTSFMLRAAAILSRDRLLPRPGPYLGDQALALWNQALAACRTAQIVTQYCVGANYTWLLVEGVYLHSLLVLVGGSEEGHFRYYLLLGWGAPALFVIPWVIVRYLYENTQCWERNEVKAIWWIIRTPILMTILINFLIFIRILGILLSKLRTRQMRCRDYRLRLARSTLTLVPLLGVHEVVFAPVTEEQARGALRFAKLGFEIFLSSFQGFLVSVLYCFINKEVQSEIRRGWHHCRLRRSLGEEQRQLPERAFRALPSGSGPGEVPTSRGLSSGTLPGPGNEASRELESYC
Text: as §1, §2

[3] = molecular target: T2, Human GlucR (Homo sapiens, UniProt P47871); conditions: assay medium; Table 4; read-out: hGlucR EC50
T2 construct: expressed in transfected cells
T2 sequence (P47871 26-477): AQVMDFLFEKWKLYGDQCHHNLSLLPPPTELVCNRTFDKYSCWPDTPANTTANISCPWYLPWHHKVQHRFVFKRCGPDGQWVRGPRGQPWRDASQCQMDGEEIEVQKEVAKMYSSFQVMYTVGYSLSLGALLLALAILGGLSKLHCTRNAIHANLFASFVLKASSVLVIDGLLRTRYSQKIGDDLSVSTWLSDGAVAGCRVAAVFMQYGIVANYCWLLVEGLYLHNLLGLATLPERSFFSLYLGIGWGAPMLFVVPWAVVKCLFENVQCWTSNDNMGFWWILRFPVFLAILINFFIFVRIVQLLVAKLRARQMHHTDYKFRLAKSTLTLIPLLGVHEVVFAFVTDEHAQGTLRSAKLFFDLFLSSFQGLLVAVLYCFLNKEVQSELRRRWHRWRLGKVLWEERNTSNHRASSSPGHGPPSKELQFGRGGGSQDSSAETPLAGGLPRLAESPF
Text: as §1, §2

Row | SMILES | pEC50 [1] | pEC50 [2] | pEC50 [3]
1 | CCCCCCCCCCCCCCCC(=O)NCCCCCC(=O)NCCCC[C@H](NC(=O)[C@H](CO)NC(=O)[C@H](CC(=O)O)NC(=O)[C@H](CC(C)C)NC(=O)[C@H](Cc1ccc(O)cc1)NC(=O)[C@H](CCC(=O)O)NC(=O)[C@H](CO)NC(=O)[C@H](Cc1ccc(O)cc1)NC(=O)[C@H](CC(=O)O)NC(=O)[C@H](CO)NC(=O)[C@@H](NC(=O)[C@H](Cc1ccccc1)NC(=O)[C@@H](NC(=O)CNC(=O)[C@H](CCC(N)=O)NC(=O)CNC(=O)[C@@H](N)Cc1c[nH]cn1)[C@@H](C)O)[C@@H](C)O)C(=O)N[C@@H](CCCNC(=N)N)C(=O)N[C@@H](C)C(=O)N[C@@H](CCCNC(=N)N)C(=O)N[C@@H](CC(=O)O)C(=O)N[C@@H](Cc1ccccc1)C(=O)N[C@H](C(=O)N[C@@H](C)C(=O)N[C@@H](Cc1c[nH]c2ccccc12)C(=O)N[C@@H](CC(C)C)C(=O)N[C@@H](CCC(=O)O)C(=O)N[C@@H](CCCNC(=N)N)C(=O)NCC(=O)NCC(N)=O)C(C)C [g684] (H-HGQGTFTSDYSEYLDSK([Ahx-Palmitoyl])RARDFVAWLERGG-NH2; N-terminus assumed) | 10.82 | 6.84 | 9.79
2 | CCCCCCCCCCCCCCCC(=O)N[C@@H](CCC(=O)NCCCC[C@H](NC(=O)[C@H](CC(=O)O)NC(=O)[C@H](CO)NC(=O)[C@@H](NC(=O)[C@H](Cc1ccccc1)NC(=O)[C@@H](NC(=O)CNC(=O)[C@H](CCC(N)=O)NC(=O)[C@H](CO)NC(=O)[C@@H](N)Cc1c[nH]cn1)[C@@H](C)O)[C@@H](C)O)C(=O)N[C@@H](CO)C(=O)N[C@@H](CCCCN)C(=O)N[C@@H](Cc1ccc(O)cc1)C(=O)N[C@@H](CC(C)C)C(=O)N[C@@H](CC(=O)O)C(=O)N[C@@H](CO)C(=O)N[C@@H](CCCNC(=N)N)C(=O)N[C@@H](CCCNC(=N)N)C(=O)N[C@@H](C)C(=O)N[C@@H](CCC(N)=O)C(=O)N[C@@H](CC(=O)O)C(=O)N[C@@H](Cc1ccccc1)C(=O)N[C@H](C(=O)N[C@@H](CCC(N)=O)C(=O)N[C@@H](Cc1c[nH]c2ccccc12)C(=O)N[C@@H](CC(C)C)C(=O)N[C@H](C(=O)N[C@@H](C)C(=O)NCC(=O)NCC(N)=O)C(C)C)C(C)C)C(=O)O [g715] (H-HSQGTFTSDK([γGlu-Palmitoyl])SKYLDSRRAQDFVQWLVAGG-NH2; N-terminus assumed) | 10.69 | 9.00 | 11.60
3 | CCCCCCCCCCCCCCCC(=O)N[C@@H](CCC(=O)NCCCC[C@H](NC(=O)[C@H](Cc1ccc(O)cc1)NC(=O)[C@H](CC(=O)O)NC(=O)[C@H](CO)NC(=O)[C@@H](NC(=O)[C@H](Cc1ccccc1)NC(=O)[C@@H](NC(=O)CNC(=O)[C@H](CCC(N)=O)NC(=O)[C@H](CO)NC(=O)[C@@H](N)Cc1c[nH]cn1)[C@@H](C)O)[C@@H](C)O)C(=O)N[C@@H](CCCCN)C(=O)N[C@@H](Cc1ccc(O)cc1)C(=O)N[C@@H](CC(C)C)C(=O)N[C@@H](CC(=O)O)C(=O)N[C@@H](CO)C(=O)N[C@@H](CCCNC(=N)N)C(=O)N[C@@H](CCCNC(=N)N)C(=O)N[C@@H](C)C(=O)N[C@@H](CCC(N)=O)C(=O)N[C@@H](CC(=O)O)C(=O)N[C@@H](Cc1ccccc1)C(=O)N[C@H](C(=O)N[C@@H](CCC(N)=O)C(=O)N[C@@H](Cc1c[nH]c2ccccc12)C(=O)N[C@@H](CC(C)C)C(=O)N[C@H](C(=O)N[C@@H](C)C(=O)NCC(=O)NCC(N)=O)C(C)C)C(C)C)C(=O)O [g716] (H-HSQGTFTSDYK([γGlu-Palmitoyl])KYLDSRRAQDFVQWLVAGG-NH2; N-terminus assumed) | 7.89 | 7.93 | 8.61
4 | CCCCCCCCCCCCCCCC(=O)N[C@@H](CCC(=O)NCCCC[C@H](NC(=O)[C@H](CO)NC(=O)[C@H](CC(=O)O)NC(=O)[C@H](CC(C)C)NC(=O)[C@H](Cc1ccc(O)cc1)NC(=O)[C@H](CCC(=O)O)NC(=O)[C@H](CO)NC(=O)[C@H](Cc1ccc(O)cc1)NC(=O)[C@H](CC(=O)O)NC(=O)[C@H](CO)NC(=O)[C@@H](NC(=O)[C@H](Cc1ccccc1)NC(=O)[C@@H](NC(=O)CNC(=O)[C@H](CCC(N)=O)NC(=O)CNC(=O)[C@@H](N)Cc1c[nH]cn1)[C@@H](C)O)[C@@H](C)O)C(=O)N[C@@H](CCCNC(=N)N)C(=O)N[C@@H](C)C(=O)N[C@@H](CCCNC(=N)N)C(=O)N[C@@H](CC(=O)O)C(=O)N[C@@H](Cc1ccccc1)C(=O)N[C@H](C(=O)N[C@@H](C)C(=O)N[C@@H](Cc1c[nH]c2ccccc12)C(=O)N[C@@H](CC(C)C)C(=O)N[C@@H](CCC(=O)O)C(=O)N[C@@H](CCCNC(=N)N)C(=O)NCC(=O)NCC(N)=O)C(C)C)C(=O)O [g721] (H-HGQGTFTSDYSEYLDSK([γGlu-Palmitoyl])RARDFVAWLERGG-NH2; N-terminus assumed) | 9.39 | 6.01 | 8.49
5 | CCCCCCCCCCCCCCCC(=O)N[C@@H](CCC(=O)NCCCC[C@H](NC(=O)[C@H](CO)NC(=O)[C@H](CC(=O)O)NC(=O)[C@H](CC(C)C)NC(=O)[C@H](Cc1ccc(O)cc1)NC(=O)[C@H](CCC(=O)O)NC(=O)[C@H](CO)NC(=O)[C@H](Cc1ccc(O)cc1)NC(=O)[C@H](CC(=O)O)NC(=O)[C@H](CO)NC(=O)[C@@H](NC(=O)[C@H](Cc1ccccc1)NC(=O)[C@@H](NC(=O)CNC(=O)[C@H](CCC(N)=O)NC(=O)CNC(=O)[C@@H](N)Cc1c[nH]cn1)[C@@H](C)O)[C@@H](C)O)C(=O)N[C@@H](CCCNC(=N)N)C(=O)N[C@@H](C)C(=O)N[C@@H](C)C(=O)N[C@@H](CC(=O)O)C(=O)N[C@@H](Cc1ccccc1)C(=O)N[C@H](C(=O)N[C@@H](C)C(=O)N[C@@H](Cc1c[nH]c2ccccc12)C(=O)N[C@@H](CC(C)C)C(=O)N[C@@H](CCC(=O)O)C(=O)N[C@@H](CCCNC(=N)N)C(=O)NCC(=O)NCC(N)=O)C(C)C)C(=O)O [g722] | 9.37 | 5.78 | 7.95
6 | CCCCCCCCCCCCCCCC(=O)N[C@@H](CCC(=O)NCCCC[C@H](NC(=O)[C@H](CO)NC(=O)[C@H](CC(=O)O)NC(=O)[C@H](CC(C)C)NC(=O)[C@H](Cc1ccc(O)cc1)NC(=O)[C@H](CCC(=O)O)NC(=O)[C@H](CO)NC(=O)[C@H](Cc1ccc(O)cc1)NC(=O)[C@H](CC(=O)O)NC(=O)[C@H](CO)NC(=O)[C@@H](NC(=O)[C@H](Cc1ccccc1)NC(=O)[C@@H](NC(=O)CNC(=O)[C@H](CCC(N)=O)NC(=O)CNC(=O)[C@@H](N)Cc1c[nH]cn1)[C@@H](C)O)[C@@H](C)O)C(=O)N[C@@H](CCCNC(=N)N)C(=O)N[C@@H](C)C(=O)N[C@@H](CCCNC(=N)N)C(=O)N[C@@H](CC(=O)O)C(=O)N[C@@H](Cc1ccccc1)C(=O)N[C@H](C(=O)N[C@@H](CCC(=O)O)C(=O)N[C@@H](Cc1c[nH]c2ccccc12)C(=O)N[C@@H](CC(C)C)C(=O)N[C@@H](CCC(=O)O)C(=O)N[C@@H](CCCNC(=N)N)C(=O)NCC(=O)NCC(N)=O)C(C)C)C(=O)O [g723] | 9.48 | 6.12 | 8.05
7 | CCCCCCCCCCCCCCCC(=O)NCCCCCC(=O)NCCCC[C@H](NC(=O)[C@H](CO)NC(=O)[C@H](CC(=O)O)NC(=O)[C@H](CC(C)C)NC(=O)[C@H](Cc1ccc(O)cc1)NC(=O)[C@H](CCC(=O)O)NC(=O)[C@H](CO)NC(=O)[C@H](Cc1ccc(O)cc1)NC(=O)[C@H](CC(=O)O)NC(=O)[C@H](CO)NC(=O)[C@@H](NC(=O)[C@H](Cc1ccccc1)NC(=O)[C@@H](NC(=O)CNC(=O)[C@H](CCC(=O)O)NC(=O)CNC(=O)[C@@H](N)Cc1c[nH]cn1)[C@@H](C)O)[C@@H](C)O)C(=O)N[C@@H](CCCNC(=N)N)C(=O)N[C@@H](C)C(=O)N[C@@H](CCCNC(=N)N)C(=O)N[C@@H](CC(=O)O)C(=O)N[C@@H](Cc1ccccc1)C(=O)N[C@H](C(=O)N[C@@H](C)C(=O)N[C@@H](Cc1c[nH]c2ccccc12)C(=O)N[C@@H](CC(C)C)C(=O)N[C@@H](CCC(=O)O)C(=O)N[C@@H](CCCNC(=N)N)C(=O)NCC(=O)NCC(N)=O)C(C)C [g724] (H-HGEGTFTSDYSEYLDSK([Ahx-Palmitoyl])RARDFVAWLERGG-NH2; N-terminus assumed) | 10.72 | 6.03 | 7.51
8 | CCCCCCCCCCCCCCCC(=O)NCCCCCC(=O)NCCCC[C@H](NC(=O)[C@H](CO)NC(=O)[C@H](CC(=O)O)NC(=O)[C@H](CC(C)C)NC(=O)[C@H](Cc1ccc(O)cc1)NC(=O)[C@H](CCC(=O)O)NC(=O)[C@H](CO)NC(=O)[C@H](Cc1ccc(O)cc1)NC(=O)[C@H](CC(=O)O)NC(=O)[C@H](CO)NC(=O)[C@@H](NC(=O)[C@H](Cc1ccccc1)NC(=O)[C@@H](NC(=O)CNC(=O)[C@H](CCC(=O)O)NC(=O)CNC(=O)[C@@H](N)Cc1c[nH]cn1)[C@@H](C)O)[C@@H](C)O)C(=O)N[C@@H](CCCNC(=N)N)C(=O)N[C@@H](C)C(=O)N[C@@H](C)C(=O)N[C@@H](CC(=O)O)C(=O)N[C@@H](Cc1ccccc1)C(=O)N[C@H](C(=O)N[C@@H](C)C(=O)N[C@@H](Cc1c[nH]c2ccccc12)C(=O)N[C@@H](CC(C)C)C(=O)N[C@@H](CCC(=O)O)C(=O)N[C@@H](CCCNC(=N)N)C(=O)NCC(=O)NCC(N)=O)C(C)C [g725] (H-HGEGTFTSDYSEYLDSK([Ahx-Palmitoyl])RAADFVAWLERGG-NH2; N-terminus assumed) | 10.60 | 5.83 | 7.22
